Data on eleven compounds can be found in ChEMBL document CHEMBL1132922, “Corticotropin releasing factor (CRF) receptor modulators: progress and opportunities for new therapeutic agents” (J Med Chem, 2000).

Data set [1] is described as follows: Half life period when administered 1 mg/kg intravenously in rat. It counts as ADME, organism-based. Also on record: dose 1 mg/kg, route intravenous. The settings on record: in vivo, iv.
Data set [2] in a line: Plasma administered 1 mg/kg intravenously in rat. Format: ADME, organism-based. Also on record: dose 1 mg/kg, route intravenous. The settings on record: iv.
For data set [3], the target named is T1, Corticotropin-releasing factor receptor 2 (Homo sapiens, UniProt Q13324).
T1 sequence (Q13324 whole entry): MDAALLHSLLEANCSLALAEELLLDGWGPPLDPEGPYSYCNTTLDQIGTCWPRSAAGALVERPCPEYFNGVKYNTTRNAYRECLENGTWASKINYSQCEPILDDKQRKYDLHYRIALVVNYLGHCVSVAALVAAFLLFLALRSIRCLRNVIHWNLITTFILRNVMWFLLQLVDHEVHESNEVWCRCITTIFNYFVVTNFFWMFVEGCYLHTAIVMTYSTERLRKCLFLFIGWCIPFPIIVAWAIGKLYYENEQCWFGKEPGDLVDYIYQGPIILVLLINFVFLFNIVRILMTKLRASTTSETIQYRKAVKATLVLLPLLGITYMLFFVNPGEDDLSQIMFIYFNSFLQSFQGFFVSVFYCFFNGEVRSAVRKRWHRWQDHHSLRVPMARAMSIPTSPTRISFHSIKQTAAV
Put plainly: Compound was tested for the binding affinity to human corticotropin releasing factor receptor (hCRF2).

For data set [4], the target named is T2, Corticotropin-releasing factor receptor 1 (Homo sapiens, UniProt P34998).
T2 sequence (P34998 whole entry): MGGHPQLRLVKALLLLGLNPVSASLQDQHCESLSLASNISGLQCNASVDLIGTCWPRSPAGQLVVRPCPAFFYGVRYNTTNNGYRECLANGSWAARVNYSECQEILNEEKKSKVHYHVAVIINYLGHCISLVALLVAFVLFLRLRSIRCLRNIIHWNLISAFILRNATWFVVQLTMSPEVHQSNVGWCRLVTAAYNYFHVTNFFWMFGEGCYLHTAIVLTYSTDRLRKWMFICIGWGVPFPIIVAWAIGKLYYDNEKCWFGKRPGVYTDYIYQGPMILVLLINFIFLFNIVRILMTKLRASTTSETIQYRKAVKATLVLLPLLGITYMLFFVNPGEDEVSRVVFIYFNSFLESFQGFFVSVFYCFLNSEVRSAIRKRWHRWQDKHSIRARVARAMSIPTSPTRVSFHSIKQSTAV
In words: Compound was tested for the binding affinity to human corticotropin releasing factor 1 (hCRF1) receptors.

The target of data set [5] is T2, Corticotropin-releasing factor receptor 1. Put plainly: Antagonist potency in hCRF1 stimulated adenylate cyclase assay. Format: functional.
Data set [6] is described as follows: Compound was tested for the binding affinity to mouse Corticotropin releasing factor receptor 2 beta.
Data set [7] deals with T3, Corticotropin releasing factor receptor (Rattus norvegicus, UniProt P47866+P35353). In words: Compound was tested for the binding affinity to rat ccorticotropin releasing factor receptor. It counts as protein assay.
The species entered for data set [8] is Rattus norvegicus. Put plainly: Percent control value is reported, after studying ability to inhibit CRF-stimulated release of ACTH in rats. It counts as functional. Also on record: scale not given: the % may be the effect or the level left.
Data set [9] concerns the target T2, Corticotropin-releasing factor receptor 1. In words: Effective concentration to stimulate the human corticotropin releasing factor receptor using agonist-stimulated adenylate cyclase assay. Format: functional.
Data set [10] is described as follows: Pharmacokinetic profile (5 mg/kg) in rat for Oral bioavailability. It counts as ADME, organism-based. The settings on record: in vivo.
A short description of data set [11]: Oral bioavailability is reported, after administering 1 mg/kg (intravenously and orally ) to dogs. The settings on record: dog, in vivo. It counts as ADME, organism-based, Canis lupus familiaris.
The target in data set [12] is T2, Corticotropin-releasing factor receptor 1. In words: Compound was tested for the binding affinity to human corticotropin releasing factor receptor.
Data set [13] has the same target. In words: Inhibition of corticotropin releasing factor receptor mediated increase in cAMP level using HEK293 cells expressing h-CRF1 receptor. It counts as cell-based. In general terms: Changes in cAMP serve as a functional read-out for many G protein-coupled receptors.
Data set [14] can be described thus: (§1) oral pharmacokinetic parameter, Half-life period was reported in rats. Format: ADME, organism-based. The settings on record: rat, in vivo.
Data set [15] in a line: oral pharmacokinetic parameter, Oral bioavailability was reported in dogs. The settings on record: dog, in vivo. It counts as ADME, organism-based, Canis lupus familiaris.
The nature of data set [16]: oral pharmacokinetic parameter, Oral bioavailability was reported in rats. It counts as ADME, organism-based. The settings on record: rat, in vivo.
A short description of data set [17]: oral pharmacokinetic parameter, Half-life period was reported in dogs. It counts as ADME, organism-based, Canis lupus familiaris. The settings on record: dog, in vivo.
A short description of data set [18]: oral pharmacokinetic parameter, Maximum concentration was reported in dogs. It counts as ADME, organism-based, Canis lupus familiaris. Also on record: route oral. The settings on record: dog, in vivo.
Data set [19] can be described thus: as §1. It counts as ADME, organism-based. The settings on record: rat, in vivo. This is another data set of the same source.
In data set [20] the target is T2, Corticotropin-releasing factor receptor 1. In words: Inhibition of corticotropin releasing factor receptor mediated increase in adenylate cyclase activity was evaluated.
Data set [21] deals with T3, Corticotropin releasing factor receptor. In words: Effective concentration to inhibit CRF-mediated increase in adenylate cyclase. Format: protein assay.
For data set [22] the target is unchanged. In words: (§2) Compound was tested for the binding affinity to rat corticotropin releasing factor receptor. Format: protein assay.
Data set [23] shares this target. Described as §2. Format: protein assay. The source holds these as a separate data set.
The species entered for data set [24] is Rattus norvegicus. Put plainly: Effective concentration to inhibit adenocorticotropic hormone (ACTH) release from primary cultures of rat pituitary cells. Format: functional, cell-based. The settings on record: Pituitary gland cell.
The nature of data set [25]: Compound was tested for the max. conc. when administered perorally(po) 30 mg/kg. It counts as ADME, organism-based. Also on record: dose 30 mg/kg, route oral. The settings on record: in vivo.
Data set [26] can be described thus: Compound was tested for the max. conc. when administered intraperitoneally (ip) 30 mg/kg. It counts as ADME, organism-based. Also on record: dose 30 mg/kg, route intraperitoneal. The settings on record: in vivo.
The nature of data set [27]: Compound was tested for bioavailability when administered intraperitoneally. Format: ADME, organism-based. The settings on record: eutheria, in vivo, ip.
Data set [28] in a line: Compound was tested for bioavailability when administered perorally. Format: ADME, organism-based. The settings on record: eutheria, in vivo, po.
Data set [29] has as its target T3, Corticotropin releasing factor receptor. Put plainly: Compound was tested for the binding affinity to rat Corticotropin releasing factor (rCRF) receptors. Format: protein assay.
Data set [30] deals with Rattus norvegicus. Put plainly: Dose (ip) that completely reverses the r/h-CRF-enhanced acoustic startle of rats. It counts as functional.
The species entered for data set [31] is Rattus norvegicus. Put plainly: 50% inhibitory concentration to antagonize ACTH secretion. It counts as functional. The settings on record: read-out: ID50 (the source's name).

Consider `COCCN(CCOC)c1nc(C)nc2c1nnn2-c1ccc(C(C)C)cc1Br`, for which the half-life (as a rule, the time needed for the level to fall by half in the phase considered) in data set [1] was 7.6 h. Also, the clearance (as a rule, the rate of elimination divided by the concentration) in [2] is 50 mL/min/kg.

For `CCCN(CCC)c1cc(C)nc2c(-c3ccc(OC)cc3OC)c(C)nn12`, the Ki (in general, the dissociation constant of the complex between target and ligand, obtained from inhibition or displacement) in [3] was > 10000 nM; in data set [4], 2.8 nM. Moreover, the EC50 (as a rule, the concentration that produces a half-maximal response) in data set [5] was 142 nM.

For the compound `CO[C@@]12C(COC(N)=O)C3=C(C(=O)C(C)=C(NCCc4ccco4)C3=O)N1CC1NC12` (some centres not stated), the Ki in [6] turned out to be 20 nM; in data set [7] it was 110 nM. For the same compound, in the data set filed under Rattus norvegicus [8], the Control is reported as 50%.

For the compound `CC[C@H](C)[C@H](NC(=O)[C@@H](NC(=O)[C@H](CC(=O)O)NC(=O)[C@H](CC(C)C)NC(=O)[C@H](CC(C)C)NC(=O)[C@H](CC(C)C)NC(=O)[C@H](CCCNC(=N)N)NC(=O)[C@H](CC(N)=O)NC(=O)[C@H](CC(N)=O)NC(=O)[C@H](C)NC(=O)[C@H](C)NC(=O)[C@H](CCC(N)=O)NC(=O)[C@H](CCC(N)=O)NC(=O)[C@H](CCCCN)NC(=O)[C@H](CCC(=O)O)NC(=O)[C@H](CCCCN)NC(=O)[C@H](CCC(=O)O)NC(=O)[C@H](CCC(N)=O)NC(=O)[C@H](CCCCN)NC(=O)[C@H](CCC(=O)O)NC(=O)[C@@H](NC(=O)[C@H](CCC(=O)O)NC(=O)[C@@H](NC(=O)[C@H](CCSC)NC(=O)[C@H](CCCCN)NC(=O)[C@H](CCCNC(=N)N)NC(=O)[C@H](CC(C)C)NC(=O)[C@H](CC(C)C)NC(=O)[C@H](Cc1c[nH]cn1)NC(=O)[C@H](N)Cc1ccccc1)[C@@H](C)CC)[C@@H](C)CC)[C@@H](C)O)C(N)=O`, the midpoint of the response in data set [9], the EC50, lay at 3760 nM.

`CCN(c1nc(C)nc(N2CCOCC2)n1)c1c(Br)cc(OC)cc1OC.CS(=O)(=O)O`: the bioavailability (as a rule, dose-corrected exposure relative to a reference, in per cent) in data set [10] amounted to 20%.

In turn, `COCC(COC)n1nnc2c(Nc3c(C)cc(C)cc3Cl)nc(C)cc21.CS(=O)(=O)O` had a bioavailability in [11] of 59%. Moreover, the Ki in [12] was determined as 3.3 nM. Moreover, the IC50 (as a rule, the concentration that inhibits the measured activity by half) in [13] came to 75 nM.

Consider `COCC(COC)Nc1nc(C)nc2c(-c3ccc(Cl)cc3Cl)c(C)nn12`, for which the half-life is 16.5 h in [14], 33 h in [17] and 16.5 h in data set [19]. Further, the bioavailability in data set [15] is 50%. Also, the F in data set [16] was 36.7%. The highest level in data set [18] (Cmax) was 240 nM. Further, it took 82 nM to reach half-maximal inhibition in data set [20] (IC50). In [12], this compound yielded a Ki of 1.8 nM.

On to `CCCN(CC1CC1)c1nc(C)nc(Nc2c(Cl)cc(Cl)cc2Cl)c1Cl`, for which the EC50 in [21] came to 150 nM; in the data set listed under Rattus norvegicus [24] it was 70 nM. Besides, the Ki in data set [22] is reported as > 10000 nM; in data set [23], 2 nM.

As for `CCN(c1nc(C)cc(C)n1)c1c(Br)cc(OC)cc1OC`, the Cmax (usually the peak of the concentration-time curve) in [25] is 366 nM; in [26] it was 1880 nM. Also, the bioavailability in [27] came out at 26%; in [28], 4%.

In data set [29], `Cc1cc(N2CCOCC2)c2ccn(-c3ccc(C(C)C)cc3Br)c2n1` displayed a Ki of 28 nM.

As to `CCCCN(CC)c1nc(C)nc2c1c(C)cn2-c1c(C)cc(C)cc1C.Cl`, the Dose in the data set on Rattus norvegicus [30] came to 17.8 mg/kg. For the same compound, the ED50 in the data set listed under Rattus norvegicus [31] stood at 13 mg/kg.
